Here are results for four compounds from patent US8871681B2, “Herbicidal compositions comprising 4-amino-3-chloro-5-fluoro-6-(4-chloro-2-fluoro-3-methoxyphenyl) pyridine-2-carboxylic acid or a derivative thereof and certain sulfonylureas” (Dow AgroSciences LLC, priority 2012, dated 2014).

Assay [1] has as its system VERPE (Veronica persica, bird's-eye speedwell). As to the kind of experiment: Post-emergence foliar-applied weed control in cereal crops, greenhouse (Example III). It is filed as in vivo, Veronica persica Poir. On the procedure: (§1) Seeds of the desired test plant species were planted in Sun Gro MetroMix® 306 planting mixture, which typically has a pH of 6.0 to 6.8 and an organic matter content of about 30 percent, in plastic pots with a surface area of 103.2 square centimeters (cm^2). When required to ensure good germination and healthy plants, a fungicide treatment and/or other chemical or physical treatment was applied. The plants were grown for 7-36 days in a greenhouse with an approximate 14 hour photoperiod which was maintained at about 18° C. during the day and 17° C. during the night. Nutrients and water were added on a regular basis and supplemental lighting was provided with overhead metal halide 1000-Watt lamps as necessary. The plants were employed for testing when they reached the second or third true leaf stage.
(§2) Treatments consisted of the benzyl ester of 4-amino-3-chloro-5-fluoro-6-(4-chloro-2-fluoro-3-methoxy-phenyl)pyridine-2-carboxylic acid (Compound A), formulated as an SC (suspension concentrate), and a second cereal herbicide alone and in combination.
(§3) Measured aliquot of benzyl ester of 4-amino-3-chloro-5-fluoro-6-(4-chloro-2-fluoro-3-methoxy-phenyl)pyridine-2-carboxylic acid (Compound A) was placed in 25 milliliter (mL) glass vials and diluted in a volume of 1.25% (v/v) Agri-dex crop oil concentrated to obtain stock solutions. Compound requirements are based upon a 12 mL application volume at a rate of 187 liters per hectare (L/ha). Spray solutions of the second cereal herbicide and experimental compound mixtures were prepared by adding the stock solutions to the appropriate amount of dilution solution to form 12 mL spray solution with active ingredients in two- and three-way combinations. Formulated compounds were applied to the plant material with an overhead Mandel track sprayer equipped with an 8002E nozzle calibrated to deliver 187 L/ha over an application area of 0.503 square meters (m^2) at a spray height of 18 inches (46 cm) above average plant canopy. Control plants were sprayed in the same manner with the solvent blank.
(§4) The treated plants and control plants were placed in a greenhouse as described above and watered by sub-irrigation to prevent wash-off of the test compounds. After 20-22 days, the condition of the test plants as compared with that of the control plants was determined visually and scored on a scale of 0 to 100 percent where 0 corresponds to no injury and 100 corresponds to complete kill.
(§5) Colby's equation was used to determine the herbicidal effects expected from the mixtures (Colby, S. R. 1967. Calculation of the synergistic and antagonistic response of herbicide combinations. Weeds 15:20-22.).
(§6) The following equation was used to calculate the expected activity of mixtures containing two active ingredients, A and B: Expected=A+B−(A×B/100)

In assay [2] the test system is CIRAR (Cirsium arvense, Canada thistle). Described as above. Particulars: foliar-applied, after 20-22 days. It counts as in vivo, Cirsium arvense (L.) Scop. On the procedure:
as §1, §2, §3, §4, §5, §6

Assay [3] concerns MATCH (Chamomilla chamomilla, scented mayweed). The description is as above. It counts as in vivo, Chamomilla chamomilla (L.) Rydb. As for the experimental part: as §1, §2, §3, §4, §5, §6
Assay [4] deals with BRAPP (Brachiaria platyphylla, broadleaf signalgrass). Kind of assay: Postemergence foliar-applied weed control, direct seeded rice, greenhouse (Example I). It is filed as in vivo, Brachiaria platyphylla (Griseb.) Nash. Particulars: Urochloa platyphylla, post-emergence, 504 h, read-out: Visual Weed Control (%) Obs, 21 DAA. The source says: (§7) Seeds or nutlets of the desired test plant species were planted in a soil matrix prepared by mixing a loam or sandy loam soil (e.g., 28.6 percent silt, 18.8 percent clay, and 52.6 percent sand, with a pH of about 5.8 and an organic matter content of about 1.8 percent) and calcareous grit in an 80 to 20 ratio. The soil matrix was contained in plastic pots with a volume of 1 quart and a surface area of 83.6 square centimeters (cm^2). When required to ensure good germination and healthy plants, a fungicide treatment and/or other chemical or physical treatment was applied. The plants were grown for 8-22 days in a greenhouse with an approximate 14 h photoperiod which was maintained at about 29° C. during the day and 26° C. during the night. Nutrients (Peters Excel® 15-5-15 5-Ca 2-Mg and iron chelate) were applied in the irrigation solution as needed and water was added on a regular basis. Supplemental lighting was provided with overhead metal halide 1000-Watt lamps as necessary. The plants were employed for testing when they reached the first through fourth true leaf stage.
(§8) Treatments consisted of the acid or esters of 4-amino-3-chloro-5-fluoro-6-(4-chloro-2-fluoro-3-methoxy-phenyl)pyridine-2-carboxylic acid (Compound A), each formulated as an SC, and various herbicidal components alone and in combination. Forms of compound A were applied on an acid equivalent basis.
(§9) Other herbicidal components were applied on an active ingredient basis and included acetolactate synthase (ALS)-inhibiting herbicides (sulfonylurea chemical class) azimsulfuron formulated as Gulliver®, bensulfuron-methyl formulated as Londax® 60DF, cyclosulfamuron (technical material), ethoxysulfuron formulated as Sunrice® 15 WDG, flazasulfuron formulated as Katana®, flucetosulfuron formulated as Sukedachi® 1KG G, foramsulfuron formulated as Option®, imazosulfuron formulated as Brazzos® WG, iodosulfuron-methyl-sodium formulated as Hussar®, metsulfuron-methyl formulated as Lorate®, nicosulfuron formulated as Accent®, orthosulfamuron formulated as Strada® WG, primisulfuron-methyl (technical material), propyrisulfuron formulated as Zeta One®, rimsulfuron formulated as Matrix® WG, sulfometuron-methyl formulated as Oust®, and trifloxysulfuron-sodium formulated as Monument® 75WG.
(§10) Treatment requirements were calculated based upon the rates being tested, the concentration of active ingredient or acid equivalent in the formulation, and a 12 mL application volume at a rate of 187 L/ha.
(§11) For treatments comprised of formulated compounds, measured amounts of compounds were placed individually in 25 mL glass vials and diluted in a volume of 1.25% (v/v) Agri-Dex® crop oil concentrated to obtain 12× stock solutions. […] Application solutions were prepared by adding an appropriate amount of each stock solution (e.g., 1 mL) and diluted to the appropriate final concentrations with the addition of 10 mL of an aqueous mixture of 1.25% (v/v) crop oil concentrate so that the final spray solutions contained 1.25+/−0.05% (v/v) Agrcrop oil concentrate.
(§12) For treatments comprised of formulated and technical compounds, weighed amounts of the technical materials were placed individually in 25 mL glass vials and dissolved in a volume of 97:3 v/v acetone/DMSO to obtain 12× stock solutions, and measured amounts of the formulated compounds were placed individually in 25 mL glass vials and diluted in a volume of 1.25% (v/v) crop oil concentrate to obtain 12× stock solutions. […] Application solutions were prepared by adding an appropriate amount of each stock solution (e.g., 1 mL) and diluted to the appropriate final concentrations with the addition of an appropriate amount of an aqueous mixture of 1.5% (v/v) crop oil concentrate so that the final spray solutions contained 1.25% (v/v) crop oil concentrate. […]

For assay [5], the system named is ECHCG (Echinochloa crusgalli, barnyardgrass). The assay is described as above. The note with it: 27 DAA. It is filed as in vivo, Echinochloa crusgalli (L.) Beauv.
From the text: as §7, §8, §9, §10, §11, §12

Assay [6] concerns ECHOR (Echinochloa oryzoides, early watergrass). Kind of assay: In-water applied weed control, transplanted paddy rice, greenhouse (Example II). It counts as in vivo, Echinochloa oryzoides (Ard.) Fritsch. As for the experimental part: (§13) Weed seeds or nutlets of the desired test plant species were planted in puddled soil (mud) prepared by mixing a shredded, non-sterilized mineral soil (50.5 percent silt, 25.5 percent clay, and 24 percent sand, with a pH of about 7.6 and an organic matter content of about 2.9 percent) and water at a 1:1 volumetric ratio. The prepared mud was dispensed in 365 mL aliquots into 16-ounce (oz.) non-perforated plastic pots with a surface area of 86.59 square centimeters (cm^2) leaving a headspace of 3 centimeters (cm) in each pot. Rice seeds were planted in Sun Gro MetroMix® 306 planting mixture, which typically has a pH of 6.0 to 6.8 and an organic matter content of about 30 percent, in plastic plug trays. Seedlings at the second or third leaf stage of growth were transplanted into 860 mL of mud contained in 32-oz. non-perforated plastic pots with a surface area of 86.59 cm^2 4 days prior to herbicide application. The paddy was created by filling the headspace of the pots with 2.5 to 3 cm of water. When required to ensure good germination and healthy plants, a fungicide treatment and/or other chemical or physical treatment was applied. The plants were grown for 4-22 days in a greenhouse with an approximate 14 h photoperiod which was maintained at about 29′C during the day and 26° C. during the night. Nutrients were added as Osmocote® (19:6:12, N:P:K+minor nutrients) at 2 g per 16-oz. pot and 4 g per 32-oz. pot. Water was added on a regular basis to maintain the paddy flood, and supplemental lighting was provided with overhead metal halide 1000-Watt lamps as necessary. The plants were employed for testing when they reached the first through fourth true leaf stage.
(§14) Treatments consisted of the acid or esters of 4-amino-3-chloro-5-fluoro-6-(4-chloro-2-fluoro-3-methoxy-phenyl)pyridine-2-carboxylic acid (compound A) each formulated as an SC and various herbicidal components alone and in combination. Forms of compound A were applied on an acid equivalent basis.
(§15) Other herbicidal components were applied on an active ingredient basis and included acetolactate synthase (ALS)-inhibiting herbicides (sulfonylurea chemical class), azimsulfuron formulated as Gulliver®, bensulfuron-methyl formulated as Londax® 60DF, cyclosulfamuron (technical grade materail), ethoxysulfuron formulated as Sunrice® 15 WDG, flucetosulfuron formulated as Sukedachi® 1KG G, imazosulfuron formulated as Brazzos®, metsulfuron-methyl formulated as Lorate®, nicosulfuron formulated as Accent®, orthosulfamuron formulated as Strada® WG, propyrisulfuron formulated as Zeta One®, and rimsulfuron formulated as Matrix® WG.
(§16) Treatment requirements for each compound or herbicidal component were calculated based upon the rates being tested, the concentration of active ingredient or acid equivalent in the formulation, an application volume of 2 mL per component per pot, and an application area of 86.59 cm^2 per pot.
(§17) For formulated compounds, a measured amount was placed in an individual 100 or 200 mL glass vial and was dissolved in a volume of 1.25% (v/v) Agri-Dex® crop oil concentrate to obtain application solutions.
(§18) For technical grade compounds, a weighed amount was placed in an individual 100 to 200 mL glass vial and was dissolved in a volume of acetone to obtain concentrated stock solutions. […] The concentrated stock solutions obtained were diluted with an equivalent volume of an aqueous mixture containing 2.5% (v/v) crop oil concentrate so that the final application solutions contained 1.25% (v/v) crop oil concentrate.
(§19) Applications were made by injecting with a pipetter appropriate amounts of the application solutions, individually and sequentially, into the aqueous layer of the paddy. Control plants were treated in the same manner with the solvent blank. Applications were made so that all treated plant material received the same concentrations of acetone and crop oil concentrate. […]

The subject of assay [7] is SCPMA (Bolboschoenus maritimus or Schoenoplectus maritimus, sea clubrush). Described as above. It counts as in vivo, Bolboschoenus maritimus (L.) Palla. On the procedure: as §13, §14, §15, §16, §17, §18, §19
[8] abbreviates: Table 55, after 20-22 days, 3 gai/ha alone.

As to `COC(=O)c1ccc(C(F)(F)F)nc1S(=O)(=O)NC(=O)Nc1nc(OC)cc(OC)n1` [Flupyrsulfuron-methyl sodium], the “Weed Control VERPE Obs” value in assay [1] (Table 53, after 20-22 days, 5 gai/ha alone) is 0%. The pest or weed control at 5 g/ha in assay [2] (Cirsium arvense, post-emergence, Table 53, 5 gai/ha alone, read-out: Weed Control CIRAR Obs) is 75%.

`COC(=O)c1ccccc1S(=O)(=O)NC(=O)N(C)c1nc(C)nc(OC)n1` [Tribenuron-methyl]: the pest or weed control at 2.2 g/ha in assay [2] (Cirsium arvense, post-emergence, Table 59 (cereal), 2.2 gai/ha alone, read-out: Weed Control CIRAR Obs) is 50%. The “Weed Control MATCH Obs” value in assay [3] (Table 59 (cereal), after 20-22 days, 2.2 gai/ha alone) was 90%.

In the case of `COC(=O)c1ccc(CNS(C)(=O)=O)cc1S(=O)(=O)NC(=O)Nc1nc(OC)cc(OC)n1` [Mesosulfuron-methyl], the “Weed Control VERPE Obs” value in assay [1] (setting [8]) is 5%. In addition, the “Weed Control CIRAR Obs” value in assay [2] (Table 55, 3 gai/ha alone) is 78%. In addition, in assay [3] (setting [8]), the “Weed Control MATCH Obs” value turned out to be 40%.

For `CCCCOC(=O)c1nc(-c2ccc(Cl)c(OC)c2F)c(F)c(N)c1Cl` [Compound A n-Butyl Ester], the pest or weed control at 4.38 g/ha in assay [4] (4.38 gae/ha) was 0%. For the same compound, the pest or weed control at 8.75 g/ha in assay [4] (8.75 gae/ha) was determined as 40%. Further, the “Visual Weed Control (%) Obs” value in assay [5] (4.38 gae/ha) and in assay [5] (8.75 gae/ha) was 0% in each case. The “Visual Weed Control (%) - 20 DAA ECHOR Obs” value was determined as 28% in assay [6] (Table 30, 35 gae/ha alone) and 45% in assay [6] (Table 30, 70 gae/ha alone). The “Visual Weed Control (%) - 20 DAA SCPMA Obs” value in assay [7] (Table 40, 35 gae/ha alone) is recorded as 0%; in assay [7] (Table 40, 70 gae/ha alone), 0%.
